Like-named read-outs stand apart in the source and are kept apart here. *1 amine or outer side, *2 acyl side, *3 side chain or, on linkers, in order; H or OH if unused. Where a SMILES comes first, the peptide text is derived from it. Bridges are numbered along the chain shown (N, C = ends). Roman numbers before positions name the chains, in order. [ ]: non-standard residue; d: D form. Actinocin(9to1) = Cc1c2oc3c(C)ccc(C(=O)[*:1])c3nc-2c(C(=O)[*:2])c(N)c1=O; NMeV = CN[C@H](C(=O)O)C(C)C; Sar = CNCC(=O)O
Tests used:
[1] = test system: zERβ2; assay type: in vivo, zebrafish; conditions: 3 dpf; for Liver GFP signal, number of zebrafish: total fish in next column
[2] = test system: zebrafish; conditions: 3 dpf; for Toxicity, number of zebrafish: total fish in next column
[3] = molecular target: T1, ERβ (Homo sapiens, UniProt Q92731); assay type: cell-based; conditions: for decrease of E2-induced stimulation of dsRED2 mRNA / decrease of basal dsRED2 mRNA transcription: 2-h, 4HT, ICI, PHTTP 1 μM, ActD 1 μg/ml, Flavo 100 nM; for decrease of E2-induced stimulation of dsRED2 mRNA: plus E2 10 nM; for decrease of basal dsRED2 mRNA transcription: without E2
T1 sequence (Q92731 whole entry): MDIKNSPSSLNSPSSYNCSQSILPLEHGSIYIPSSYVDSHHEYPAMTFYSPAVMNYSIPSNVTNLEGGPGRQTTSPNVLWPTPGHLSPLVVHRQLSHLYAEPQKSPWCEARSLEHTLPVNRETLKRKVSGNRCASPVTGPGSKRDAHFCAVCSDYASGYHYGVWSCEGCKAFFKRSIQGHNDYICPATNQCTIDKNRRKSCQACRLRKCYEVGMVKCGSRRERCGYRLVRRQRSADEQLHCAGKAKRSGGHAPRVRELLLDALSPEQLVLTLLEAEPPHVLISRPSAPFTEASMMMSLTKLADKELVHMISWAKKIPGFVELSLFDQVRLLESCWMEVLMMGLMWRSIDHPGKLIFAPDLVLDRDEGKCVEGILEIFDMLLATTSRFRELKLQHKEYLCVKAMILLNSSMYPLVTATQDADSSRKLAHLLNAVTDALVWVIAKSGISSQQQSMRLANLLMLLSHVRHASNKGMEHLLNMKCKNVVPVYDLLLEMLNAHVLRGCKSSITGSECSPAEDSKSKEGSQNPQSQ

[4] = molecular target: T1, ERβ; assay type: cell-based; conditions: for activity in GFP-ERβ:PRL-HeLa, EPA45 batch received: first batch of EPA45 chemicals; for effect on array size and dsRED2 features (in words): EPA45 library, 6-point dose-response
[5] = molecular target: T2, zERα (Danio rerio, UniProt P57717); assay type: in vivo, zebrafish; conditions: 3 dpf
T2 sequence (P57717 1-569): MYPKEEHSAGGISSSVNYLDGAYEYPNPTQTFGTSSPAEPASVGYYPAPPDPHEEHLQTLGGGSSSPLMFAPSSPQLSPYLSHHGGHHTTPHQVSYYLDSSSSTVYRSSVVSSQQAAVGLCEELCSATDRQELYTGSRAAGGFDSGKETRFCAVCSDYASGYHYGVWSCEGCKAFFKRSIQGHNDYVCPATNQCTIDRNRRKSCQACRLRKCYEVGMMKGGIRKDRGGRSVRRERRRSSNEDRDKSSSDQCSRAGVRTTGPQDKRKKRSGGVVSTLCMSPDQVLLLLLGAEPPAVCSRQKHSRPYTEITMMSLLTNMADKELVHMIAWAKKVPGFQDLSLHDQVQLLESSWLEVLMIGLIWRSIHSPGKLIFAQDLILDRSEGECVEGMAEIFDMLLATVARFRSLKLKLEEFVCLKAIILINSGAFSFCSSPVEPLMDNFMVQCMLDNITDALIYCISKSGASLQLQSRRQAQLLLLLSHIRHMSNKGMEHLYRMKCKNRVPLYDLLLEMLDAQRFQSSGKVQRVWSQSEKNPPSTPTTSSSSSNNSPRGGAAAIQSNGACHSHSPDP

[6] = test system: zebrafish ERs (zERα, zERβ1, and zERβ2); assay type: in vivo; conditions: 3 dpf
[7] = test system: ERβ LBD; conditions: ERβ LBD only, without NLS; ref ToxCast [23]; cited from earlier work
[8] = test system: zebrafish ERs (zERα, zERβ1, and zERβ2); conditions: read-out: EC50 in ERE:GFP zebrafish; previously published results; ref [36],[37]; cited from earlier work
[9] = both concentrations tested (2 and 20 μM)
[10] = time course, E2 10 nM, 4HT 100 nM

## O=C1C2(Cl)C3(Cl)C4(Cl)C(Cl)(Cl)C5(Cl)C3(Cl)C1(Cl)C5(Cl)C24Cl (centres unmarked) [Kepone]
[1]; 2 μM
  Liver (zERβ/hERα), zebrafish with GFP signal / total: 0/18
[1]; 20 μM
  Liver (zERβ/hERα), zebrafish with GFP signal / total: 0/18
[2]; 2 μM
  Dead/Abnormal zebrafish / total: 0/18
[2]; 20 μM
  Dead/Abnormal zebrafish / total: 0/18

## CN1CC[C@H](c2c(O)cc(O)c3c(=O)cc(-c4ccccc4Cl)oc23)[C@H](O)C1 [flavopirodol]
[3]
  decrease of E2-induced stimulation of dsRED2 mRNA: > 2 fold
  decrease of basal dsRED2 mRNA transcription: > 2 fold

## CC/C(=C(/CC)c1ccc(O)cc1)c1ccc(O)cc1 [diethylstilbestrol]
[4]; 2-h
  activity in GFP-ERβ:PRL-HeLa, EPA45 batch received: inactive

## CCC1(c2ccccc2)C(=O)NC(=O)NC1=O [Phenobarbital sodium]
[5]; 2 μM
  Heart (zERα/hERβ), zebrafish with GFP signal / total: 17/18
[5]; 20 μM
  Heart (zERα/hERβ), zebrafish with GFP signal / total: 14/18
[4]; 2-h
  effect on array size and dsRED2 features (in words): showed response in both features
[1]; 2 μM
  Liver (zERβ/hERα), zebrafish with GFP signal / total: 16/18
[1]; 20 μM
  Liver (zERβ/hERα), zebrafish with GFP signal / total: 16/18
[2]; 2 μM
  Dead/Abnormal zebrafish / total: 1/18
[2]; 20 μM
  Dead/Abnormal zebrafish / total: 1/18
[6]; [9]
  tissue GFP signal (in words): showed GFP signal in both the liver and heart valve
[7]
  activity in BiFC ERβ dimerization assay: no effect

## CCCCOC(=O)c1ccccc1C(=O)OCc1ccccc1 [benzylbutylphthalate]
[7]
  activity in BiFC ERβ dimerization assay: hits

## O=c1c(O)c(-c2ccc(O)cc2)oc2cc(O)cc(O)c12 [Kaempferol]
[1]; 2 μM
  Liver (zERβ/hERα), zebrafish with GFP signal / total: 0/18
[1]; 20 μM
  Liver (zERβ/hERα), zebrafish with GFP signal / total: 0/18
[2]; 2 μM
  Dead/Abnormal zebrafish / total: 0/18
[2]; 20 μM
  Dead/Abnormal zebrafish / total: 0/18

## C[C@@H]1C[C@@H]([C@H](O)CC2CC(=O)NC(=O)C2)C(=O)[C@@H](C)C1 [Cycloheximide]
[4]; 2-h
  effect on array size and dsRED2 features (in words): showed response in both features
[1]; 2 μM
  Liver (zERβ/hERα), zebrafish with GFP signal / total: 0/18
[1]; 20 μM
  Liver (zERβ/hERα), zebrafish with GFP signal / total: 1/18
[2]; 2 μM
  Dead/Abnormal zebrafish / total: 0/18
[2]; 20 μM
  Dead/Abnormal zebrafish / total: 8/18
[2]; 2 and 20 μM
  toxicity in zebrafish (in words): mostly toxic
[7]
  activity in BiFC ERβ dimerization assay: no effect

## CC/C(=C(\c1ccc(O)cc1)c1ccc(OCCN(C)C)cc1)c1ccccc1 [4HT, 4-Hydroxytamoxifen]
[4]; 384 well plates, four technical and four biological replicates
  Z-prime, Array Size: 0.61 ± 0.13
[4]; [10]
  change in array size vs DMSO (in words): decreasing it
  change in nuclear GFP-ERβ levels (in words): increase in GFP-ERβ signal within the nucleus
[3]
  decrease of E2-induced stimulation of dsRED2 mRNA: > 2 fold
  decrease of basal dsRED2 mRNA transcription: > 2 fold
[3]; 4HT 100 nM, vs DMSO
  intensity of dsRED2 RNA signal at the array (in words): diminishing significantly

## C[C@]12CC[C@@H]3c4ccc(O)cc4C[C@@H](CCCCCCCCC[S+]([O-])CCCC(F)(F)C(F)(F)F)[C@H]3[C@@H]1CC[C@@H]2O (some centres unmarked) [ICI182,780, ICI 182,780]
[3]
  decrease of E2-induced stimulation of dsRED2 mRNA: > 2 fold
  decrease of basal dsRED2 mRNA transcription: > 2 fold

## CC(C)(c1ccc(O)cc1)c1ccc(O)cc1 [bisphenol A]
[4]; 2-h
  activity in GFP-ERβ:PRL-HeLa, EPA45 batch received: inactive
[4]; independent batches of the chemicals
  activity in GFP-ERβ:PRL-HeLa, independent batches: confirmed activity

## Cc1c2oc3c(C)ccc(C(=O)N[C@@H]4C(=O)N[C@H](C(C)C)C(=O)N5CCC[C@H]5C(=O)N(C)CC(=O)N(C)[C@@H](C(C)C)C(=O)O[C@@H]4C)c3nc-2c(C(=O)N[C@@H]2C(=O)N[C@H](C(C)C)C(=O)N3CCC[C@H]3C(=O)N(C)CC(=O)N(C)[C@@H](C(C)C)C(=O)O[C@@H]2C)c(N)c1=O [actinomycin D] (I: T[dV]P[Sar][NMeV] / II: T[dV]P[Sar][NMeV]; ester I:1-I:C, II:1-II:C; linker I:N-II:N via Actinocin(9to1))
[3]
  decrease of E2-induced stimulation of dsRED2 mRNA: > 2 fold
  decrease of basal dsRED2 mRNA transcription: > 2 fold

## Oc1ccc(-c2c(-c3ccccc3)nn3c(C(F)(F)F)cc(C(F)(F)F)nc23)cc1 [PHTTP, 4-[2-phenyl-5,7-bis(trifluoromethyl)pyrazolo[1,5-a]pyrimidin-3-yl]phenol]
[4]; GFP-ERβ:PRL-HeLa vs GFP-ERα:PRL-HeLa, 2-h, 10pM to 1 μM
  ER subtype preference across array metrics: preference for ERβ
[3]
  decrease of E2-induced stimulation of dsRED2 mRNA: > 2 fold
  decrease of basal dsRED2 mRNA transcription: > 2 fold

## O=c1c(-c2ccc(O)cc2)coc2cc(O)cc(O)c12 [genistein, Genistein]
[1]; 1 μM
  Liver GFP signal, number of zebrafish: 0
[1]; 10 μM
  Liver GFP signal, number of zebrafish: 12
[1]; 100 μM
  Liver GFP signal, number of zebrafish: 6
[2]; 1 μM
  Toxicity, number of zebrafish: 0
[2]; 10 μM
  Toxicity, number of zebrafish: 0
[2]; 100 μM
  Toxicity, number of zebrafish: 12
[6]; 1 μM
  tissue GFP signal (in words): only heart valve signal
[6]; 10 μM
  tissue GFP signal (in words): heart valve and liver signal

## OC(c1ccc(Cl)cc1)(c1cncnc1)c1ccccc1Cl (centres unmarked) [fenarimol]
[7]
  activity in BiFC ERβ dimerization assay: hits

## COc1ccc(C(c2ccc(OC)cc2)C(Cl)(Cl)Cl)cc1 [methoxychlor]
[7]
  activity in BiFC ERβ dimerization assay: hits

## C[C@]12C[C@H](O)[C@H]3[C@@H](CCC4=CC(=O)CC[C@@]43C)[C@@H]1CC[C@@H]2C(=O)CO [Corticosterone]
[5]; 2 μM
  Heart (zERα/hERβ), zebrafish with GFP signal / total: 18/18
[5]; 20 μM
  Heart (zERα/hERβ), zebrafish with GFP signal / total: 16/18
[4]; 2-h
  effect on array size and dsRED2 features (in words): showed response in both features
[1]; 2 μM
  Liver (zERβ/hERα), zebrafish with GFP signal / total: 18/18
[1]; 20 μM
  Liver (zERβ/hERα), zebrafish with GFP signal / total: 16/18
[2]; 2 μM
  Dead/Abnormal zebrafish / total: 0/18
[2]; 20 μM
  Dead/Abnormal zebrafish / total: 2/18
[6]; [9]
  tissue GFP signal (in words): showed GFP signal in both the liver and heart valve
[7]
  activity in BiFC ERβ dimerization assay: no effect

## CCC(C)(c1ccc(O)cc1)c1ccc(O)cc1 [bisphenol B]
[4]; 2-h
  activity in GFP-ERβ:PRL-HeLa, EPA45 batch received: inactive
[3]; independent batch of the chemical
  activation of dsRED2, independent batch: little activation

## OC(c1ccc(Cl)cc1)(c1ccc(Cl)cc1)C(Cl)(Cl)Cl [dicofol]
[7]
  activity in BiFC ERβ dimerization assay: hits

## C[C@]12CC[C@@H]3c4ccc(O)cc4CC[C@H]3[C@@H]1CC[C@@H]2O [E2, Estradiol (17-β)]
[8]
  EC50: 3 to 5 nM
[1]; 1 nM
  Liver GFP signal, number of zebrafish: 0
[1]; 10 nM
  Liver GFP signal, number of zebrafish: 10
[1]; 100 nM
  Liver GFP signal, number of zebrafish: 12
[2]; 1 nM
  Toxicity, number of zebrafish: 0
[2]; 10 nM
  Toxicity, number of zebrafish: 0
[2]; 100 nM
  Toxicity, number of zebrafish: 0
[6]
  lowest concentration inducing GFP signal in both heart valve and liver: 10 nM
[3]; E2 10 nM, vs DMSO
  increase of intensity of dsRED2 RNA signal at the array: ~3 fold

From paper PMC10758781 (Heliyon, 2023)
